Measured values reported in patent publication US12091425B2 (AMGEN INC., priority 2016, dated 2024).
pIC50: −log10 of the molar value.

Key:
[1] = biological target: T1, Mcl-1/Bim interaction, recombinant human Mcl-1 (171-327) (Homo sapiens, UniProt Q07820); assay: Cell free Mcl-1: Bim Affinity Assay (Mcl-1 HTRF); assay type: binding
T1 construct: made in house
Summary of the method: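 Displacement of biotinylated Bim 51-76 peptide is followed by TR-FRET. Incubation runs overnight. Duplicate points are fitted with a four-parameter sigmoid to yield IC50.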

[2] = tested on: OPM-2 human multiple myeloma cell line; assay: Cell Viability Assay (OPM-2 10 FBS); assay type: cell-based; conditions: OPM-2 cells, CellTiter-Glo
Summary of the method: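 Plated at 3000 cells/well in 10% FBS complete medium, the cells received a serial compound dilution series and incubated 16 h at 37 °C with 5% CO2. CellTiter-Glo was then added; IC50 values were fitted with a logistic 4-parameter model.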

[3] = TR-FRET, 0.1 nM Mcl-1 (171-327), 0.05 nM biotin-Bim (51-76)
[4] = Homo sapiens, OPM-2, 16 h, 16 h
[5] = Homo sapiens, OPM-2, 16 h, 16 h incubation
[6] = cell free Mcl-1:Bim TR-FRET, recombinant human Mcl-1 (171-327)

T1 sequence (Q07820 171-327): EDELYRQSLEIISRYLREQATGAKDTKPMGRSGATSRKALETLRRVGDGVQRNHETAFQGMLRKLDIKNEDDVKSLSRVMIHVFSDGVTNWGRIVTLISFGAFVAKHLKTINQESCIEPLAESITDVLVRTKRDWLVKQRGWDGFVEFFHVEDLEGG

SMILES | pIC50 [1, 3] | pIC50 [2, 4] | pIC50 ([2]; 16 h) | further results
CC[C@@H]1C[C@@H](C)/C=C/[C@H](OCCOC)[C@@H]2CC[C@H]2CN2C[C@@]3(CCCc4cc(Cl)ccc43)COc3ccc(cc32)C(=O)NS1(=O)=O (single isomer, unassigned) [Example 1025] | 9.39 |  |  | pIC50 ([2]; 16 h incubation): 6.85
O=C1NS(=O)(=O)[C@H]2CCC[C@@H](/C=C/[C@H](O)[C@@H]3CC[C@H]3CN3C[C@@]4(CCCc5cc(Cl)ccc54)COc4ccc1cc43)C2 (single isomer, unassigned) [Example 110] | 8.87 |  | 5.25 | 
CC(C)(C)S(=O)(=O)CC[C@H]1CC/C=C/[C@H](O)[C@@H]2CC[C@H]2CN2C[C@@]3(CCCc4cc(Cl)ccc43)COc3ccc(cc32)C(=O)NS1(=O)=O (single isomer, unassigned) [Example 155] | 9.07 |  | 4.94 | 
COCC[C@@H]1C[C@H](C)/C=C/[C@H](OC)[C@@H]2CC[C@H]2CN2C[C@@]3(CCCc4cc(Cl)ccc43)COc3ccc(cc32)C(=O)NS1(=O)=O (single isomer, unassigned) [Example 485] |  |  | 6.25 | pIC50 [1, 6]: 9.33
COCC(C)OC1C=CCCC(C)S(=O)(=O)NC(=O)c2ccc3c(c2)N(CC2CCC21)CC1(CCCc2cc(Cl)ccc21)CO3 (mixture of isomers) [Example 955] | 8.91 |  |  | pIC50 ([2]; 16 h incubation): 6.25
C[C@H]1/C=C/[C@H](O)[C@@H]2CC[C@H]2CN2C[C@@]3(CCCc4cc(Cl)ccc43)COc3ccc(cc32)C(=O)NS(=O)(=O)CC1 (single isomer, unassigned) [Example 491] |  |  | 5.46 | pIC50 [1, 6]: 9.11
C=CCN1CCCC[C@H](O)[C@@H]2CC[C@H]2CN2C[C@@]3(CCCc4cc(Cl)ccc43)COc3ccc(cc32)C(=O)NS1(=O)=O [Example 87, (1S,3′R,6′R,7′S)-6-chloro-7′-hydroxy-12′-(2-propen-1-yl)-3,4-dihydro-2H,15′H-spiro[naphthalene-1,22′-[20]oxa[13]thia[1,12,14]triazatetracyclo[14.7.2.0^3,6.0^19,24]pentacosa[16,18,24]trien]-15′-one 13′,13′-dioxide] | 8.48 | 5.45 |  | 
CO[C@H]1/C=C/C(CO)C(C)CS(=O)(=O)NC(=O)c2ccc3c(c2)N(C[C@@H]2CC[C@H]21)C[C@@]1(CCCc2cc(Cl)ccc21)CO3 (single isomer, unassigned) [Example 126] | 9.35 |  | 6.30 | 
CC[C@@H]1CC/C=C/[C@H](OCc2nccs2)[C@@H]2CC[C@H]2CN2C[C@@]3(CCCc4cc(Cl)ccc43)COc3ccc(cc32)C(=O)NS1(=O)=O [Example 990, (1S,3′R,6′R,7′S,8′E,12′R)-6-chloro-12′-ethyl-7′-(1,3-thiazol-2-ylmethoxy)-3,4-dihydro-2H,15′H-spiro[naphthalene-1,22′-[20]oxa[13]thia[1,14]diazatetracyclo[14.7.2.0^3,6.0^19,24]pentacosa [8,16,18,24]tetraen]-15′-one 13′,13′-dioxide] | 8.51 |  |  | pIC50 [2, 5]: 5.65
COC[C@@H]1C[C@@H](C)/C=C/[C@H](OC)[C@@H]2CC[C@H]2CN2C[C@@]3(CCCc4cc(Cl)ccc43)COc3ccc(cc32)C(=O)NS1(=O)=O (single isomer, unassigned) [Example 473] |  |  | 6.80 | pIC50 [1, 6]: 9.43
CO[C@@H]1C[C@H]2C/C=C/[C@H](OC)[C@@H]3CC[C@H]3CN3C[C@@]4(CCCc5cc(Cl)ccc54)COc4ccc(cc43)C(=O)NS(=O)(=O)[C@@H]2C1 (single isomer, unassigned) [Example 337] | 9.15 |  | 6.42 | 

The next lines start with results.

pIC50 [1, 3] | pIC50 [2, 4] | SMILES | pIC50 ([2]; 16 h) | further results
9.23 | 6.35 | CO[C@H]1C[C@@H](N2[C@@H](C)C/C=C/[C@H](O)[C@@H]3CC[C@H]3CN3C[C@@]4(CCCc5cc(Cl)ccc54)COc4ccc(cc43)C(=O)NS2(=O)=O)C1 [Example 77, (1S,3′R,6′R,7′S,8′E,11′S)-6-chloro-7′-hydroxy-12′-(cis-3-methoxycyclobutyl)-11′-methyl-3,4-dihydro-2H,15′H-spiro[naphthalene-1,22′-[20]oxa[13]thia[1,12,14]triazatetracyclo[14.7.2.0^3,6.0^19,24]pentacosa[8,16,18,24]tetraen]-15′-one 13′,13′-dioxide] |  | 
8.87 |  | C[C@@H]1[C@@H](C)C[C@H](CC(=O)N(C)C)/C=C/[C@@H]2CC[C@H]2CN2C[C@@]3(CCCc4cc(Cl)ccc43)COc3ccc(cc32)C(=O)NS1(=O)=O [Example 1072, 2-((1S,3′R,6′S,7′E,9′R,11′S,12′R)-6-chloro-11′,12′-dimethyl-13′,13′-dioxido-15′-oxo-3,4-dihydro-2H-spiro[naphthalene-1,22′-[20]oxa[13]thia[1,14]diazatetracyclo[14.7.2.0^3,6.0^19,24]pentacosa [7,16,18,24]tetraen]-9′-yl)-N,N-dimethylacetamide] |  | pIC50 [2, 5]: 5.82
9.24 | 6.07 | C=CCN1CC/C=C/[C@H](O)[C@@H]2CC[C@H]2CN2C[C@@]3(CCCc4cc(Cl)ccc43)COc3ccc(cc32)C(=O)NS1(=O)=O [Example 42, (1S,3′R,6′R,7′S,8′E)-6-chloro-7′-hydroxy-12′-(2-propen-1-yl)-3,4-dihydro-2H,15′H-spiro[naphthalene-1,22′-[20]oxa[13]thia[1,12,14]triazatetracyclo[14.7.2.0^3,6.0^19,24]pentacosa[8,16,18,24]tetraen]-15′-one 13′,13′-dioxide] |  | 
9.56 |  | C[C@@H]1CC/C=C/[C@H](OCc2ncccn2)[C@@H]2CC[C@H]2CN2C[C@@]3(CCCc4cc(Cl)ccc43)COc3ccc(cc32)C(=O)NS1(=O)=O [Example 956, (1S,3′R,6′R,7′S,8′E,12′R)-6-chloro-12′-methyl-7′-(2-pyrimidinylmethoxy)-3,4-dihydro-2H,15′H-spiro[naphthalene-1,22′-[20]oxa[13]thia[1,14]diazatetracyclo[14.7.2.0^3,6.0^19,24]pentacosa [8,16,18,24]tetraen]-15′-one 13′,13′-dioxide] |  | pIC50 [2, 5]: 6.68
8.91 |  | CCOC(=O)CCO[C@H]1/C=C/CC[C@@H](CC)S(=O)(=O)NC(=O)c2ccc3c(c2)N(C[C@@H]2CC[C@H]21)C[C@@]1(CCCc2cc(Cl)ccc21)CO3 [Example 1009, ethyl 3-(((1S,3′R,6′R,7′S,8′E,12′R)-6-chloro-12′-ethyl-13′,13′-dioxido-15′-oxo-3,4-dihydro-2H-spiro[naphthalene-1,22′-[20]oxa[13]thia[1,14]diazatetracyclo[14.7.2.0^3,6.0^19,24]pentacosa [8,16,18,24]tetraen]-7′-yl)oxy)propanoate] |  | pIC50 [2, 5]: 6.15
8.94 | 7.35 | COC(=O)CCO[C@H]1/C=C/C[C@H](C)NS(=O)(=O)NC(=O)c2ccc3c(c2)N(C[C@@H]2CC[C@H]21)C[C@@]1(CCCc2cc(Cl)ccc21)CO3 [Example 70, methyl 3-(((1S,3′R,6′R,7′S,8′E,11′S)-6-chloro-11′-methyl-13′,13′-dioxido-15′-oxo-3,4-dihydro-2H-spiro [naphthalene-1,22′-[20]oxa[13]thia[1,12,14]triazatetracyclo[14.7.2.0^3,6.0^19,24]pentacosa[8,16,18,24]tetraen]-7′-yl)oxy)propanoate] |  | 
8.42 | 4.60 | CC1C=CC(O)C2CCC2CN2CC3(CCCc4cc(Cl)ccc43)COc3ccc(cc32)C(=O)NS(=O)(=O)C1 (single isomer, unassigned) [Example 165] |  | 
9.45 | 6.43 | C[C@@H]1CC/C=C/[C@H](O[C@H]2CCOC2=O)[C@@H]2CC[C@H]2CN2C[C@@]3(CCCc4cc(Cl)ccc43)COc3ccc(cc32)C(=O)NS1(=O)=O [Example 413] |  | 
8.97 |  | CC(=O)O[C@@H]1/C=C/C[C@H](C)[C@@H](C)S(=O)(=O)NC(=O)c2ccc3c(c2)N(C[C@@H]2CC[C@H]21)C[C@@]1(CCCc2cc(Cl)ccc21)CO3 [Example 1070, (1S,3′R,6′R,7′R,8′E,11′S,12′R)-6-chloro-11′,12′-dimethyl-13′,13′-dioxido-15′-oxo-3,4-dihydro-2H-spiro[naphthalene-1,22′-[20]oxa[13]thia[1,14]diazatetracyclo[14.7.2.0^3,6.0^19,24]pentacosa [8,16,18,24]tetraen]-7′-yl acetate] |  | pIC50 [2, 5]: 5.91
8.26 |  | O=C1NS(=O)(=O)[C@@H]2CCC[C@H]2C/C=C/[C@H](O)[C@@H]2CC[C@H]2CN2C[C@@]3(CCCc4cc(Cl)ccc43)COc3ccc1cc32 (single isomer, unassigned) [Example 326] | 4.70 | 
 | 6.05 | CC(C)(O)CC1CCC=CC(O)C2CCC2CN2CC3(CCCc4cc(Cl)ccc43)COc3ccc(cc32)C(=O)NS1(=O)=O (single isomer, unassigned) [Example 558] |  | pIC50 [1, 6]: 9.55
8.42 | 5.98 | C[C@@H]1[C@@H](C)C/C=C/C(=O)[C@@H]2CC[C@H]2CN2C[C@@]3(CCCc4cc(Cl)ccc43)COc3ccc(cc32)C(=O)NS1(=O)=O [Example 349, (1S,3′R,6′R,8′E,11′S,12′R)-6-chloro-11′,12′-dimethyl-3,4-dihydro-2H,7′H,15′H-spiro[naphthalene-1,22′-[20]oxa[13]thia[1,14]diazatetracyclo[14.7.2.0^3,6.0^19,24]pentacosa [8,16,18,24]tetraene]-7′,15′-dione 13′,13′-dioxide] |  | 
